Experimental data published in patent publication US8153167B2, “Herbal medicine for osteoporosis and related conditions” (Medipearl Pte Ltd., priority 2007, dated 2012).
Like-named read-outs stand apart in the source and are kept apart here.

Columns and labels:
osteoblast-like cells = conditions: Kim et al. (2003), Ha (2003), cited from earlier work
ovariectomized rats = assay: ovariectomized rat osteoporosis animal model; assay type: in vivo; conditions: femur, three months, dose not given
Description: Materials have been tested in ovariectomized rats, a popular and generally accepted osteoporosis animal model.
After orally dosing continuously for three months at 0.12, 0.25, 0.5 and 0.8 g/kg/day, twice a day, the bone mass index, wet weight and dry weight of femur, bone mineral densities of femur and lumbar were measured and calculated. Body weights of rats were measured weekly.
The effects of the purified composition on the body weight of the rats in the groups described above were determined.
We measured the body weight of each experimental animal group weekly.

UMR 106 cell line = conditions: UMR 106 cells in vitro; Wang et al. 2001, Meng et al. 2004; cited from earlier work
[1] = system: human osteoblast-like cell lines, MG-63 and hFOB; conditions: Kuo et al. (2005); cited from earlier work

| Structure (SMILES) | proliferation of osteoblast-like cells (osteoblast-like cells) | osteoblastic proliferation activity (UMR 106 cell line) | also measured |
| --- | --- | --- | --- |
| COC(=O)C1=CO[C@@H](O[C@@H]2O[C@H](CO)[C@@H](O)[C@H](O)[C@H]2O)[C@@H]2C(CO)=CC[C@H]12 [geniposide] | increased the proliferation of osteoblast-like cells | – | – |
| O=C(O)C1=CO[C@@H](O[C@@H]2O[C@H](CO)[C@@H](O)[C@H](O)[C@H]2O)[C@@H]2C(CO)=CC[C@H]12 [GPA, geniposidic acid] | increases the proliferation of osteoblast-like cells | – | proliferation of osteoblast-like cells (osteoblast-like cells; listed as geniposidic acid): increased the proliferation of osteoblast-like cells |
| OCC1=C[C@@H](O)[C@@H]2C=CO[C@@H](O[C@@H]3O[C@H](CO)[C@@H](O)[C@H](O)[C@H]3O)[C@H]12 [aucubin] | increased the proliferation of osteoblast-like cells | – | – |
| NCCCC(O)(P(=O)(O)O)P(=O)(O)O [Fosamax ®] | – | – | Wet Weight (mg/cm) ( x ± s) (ovariectomized rats): 205.8757 ± 18.32 mg/cm |
| COc1c2ccoc2cc2oc(=O)ccc12 [Bergapten, bergapten] | – | less effective than osthole | – |
| CC(C)=CCOc1c2occc2cc2ccc(=O)oc12 [imperatorin] | – | less effective than osthole | – |
| COc1ccc2ccc(=O)oc2c1CC=C(C)C [Osthole, osthole] | – | significantly promoted the cells' activity | differentiation of osteoblast-like cells [1]: significantly induced the differentiation |
